Data as given in PubChem BioAssay (NCI).
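Grown in 96-well plates, cells were treated for 48 hours with each compound at five concentrations. Insufficient inhibition: endpoint recorded as highest concentration tested. Here, GI50 denotes the concentration required for 50% inhibition of growth. TGI denotes the concentration required for complete inhibition of growth.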

How the values were obtained:
Test in all cases: inhibition of tumour cell growth, NCI panel, 48 h
CAKI-1 renal = system: CAKI-1 renal
NCI-H460 lung = system: NCI-H460 lung
SK-MEL-28 melanoma = system: SK-MEL-28 melanoma
786-0 renal = system: 786-0 renal
UACC-62 melanoma = system: UACC-62 melanoma
A498 renal = system: A498 renal
MALME-3M melanoma = system: MALME-3M melanoma
M14 melanoma = system: M14 melanoma
OVCAR-4 ovarian = system: OVCAR-4 ovarian
SF-295 CNS = system: SF-295 CNS
K-562 leukemia = system: K-562 leukemia
EKVX NSCLC = system: EKVX NSCLC
MCF7 breast = system: MCF7 breast
T-47D breast = system: T-47D breast
HCC-2998 colon = system: HCC-2998 colon
HCT-15 colon = system: HCT-15 colon
HOP-62 NSCLC = system: HOP-62 NSCLC
KM12 colon = system: KM12 colon
OVCAR-5 ovarian = system: OVCAR-5 ovarian
NCI/ADR-RES ovarian = system: NCI/ADR-RES ovarian
TK-10 renal = system: TK-10 renal
UO-31 renal = system: UO-31 renal
HT29 colon = system: HT29 colon
NCI-H23 lung = system: NCI-H23 lung
SK-OV-3 ovarian = system: SK-OV-3 ovarian
MDA-MB-231 breast = system: MDA-MB-231 breast
RXF 393 renal = system: RXF 393 renal
DU-145 prostate = system: DU-145 prostate
RPMI-8226 leukemia = system: RPMI-8226 leukemia
SF-268 CNS = system: SF-268 CNS
NCI-H226 lung = system: NCI-H226 lung
SNB-75 CNS = system: SNB-75 CNS
HOP-92 NSCLC = system: HOP-92 NSCLC
HL-60(TB) leukemia = system: HL-60(TB) leukemia
MOLT-4 leukemia = system: MOLT-4 leukemia
SK-MEL-2 melanoma = system: SK-MEL-2 melanoma
SK-MEL-5 melanoma = system: SK-MEL-5 melanoma
SN12C renal = system: SN12C renal
IGROV1 ovarian = system: IGROV1 ovarian
HS 578T breast = system: HS 578T breast
ACHN renal = system: ACHN renal
PC-3 prostate = system: PC-3 prostate
MDA-MB-435 = system: MDA-MB-435
LOX IMVI melanoma = system: LOX IMVI melanoma
UACC-257 melanoma = system: UACC-257 melanoma
HCT-116 colon = system: HCT-116 colon
OVCAR-3 ovarian = system: OVCAR-3 ovarian
NCI-H522 lung = system: NCI-H522 lung
COLO 205 colon = system: COLO 205 colon
U251 CNS = system: U251 CNS
CCRF-CEM leukemia = system: CCRF-CEM leukemia
SNB-19 CNS = system: SNB-19 CNS
A549 NSCLC = system: A549 NSCLC
SW-620 colon = system: SW-620 colon
SF-539 CNS = system: SF-539 CNS
BT-549 breast = system: BT-549 breast
OVCAR-8 ovarian = system: OVCAR-8 ovarian

Molecule `O=C(/C=C/C12c3ccccc3C(c3ccccc31)C1C(=O)NC(=O)C12)c1ccco1` (centres undefined) has a GI50 (CAKI-1 renal) of 3.74 µM, a TGI (CAKI-1 renal) of 14 µM and a GI50 (NCI-H460 lung) of 1.8 µM. The TGI (NCI-H460 lung) was 3.98 µM, the GI50 (SK-MEL-28 melanoma) was 2.37 µM and the TGI (SK-MEL-28 melanoma) was 4.73 µM. The GI50 (786-0 renal) was 3.28 µM, the TGI (786-0 renal) was 10.8 µM and the GI50 (UACC-62 melanoma) was 2.16 µM. For the same molecule, the TGI (UACC-62 melanoma) was 4.9 µM, the GI50 (A498 renal) was 2.42 µM and the TGI (A498 renal) was 6.05 µM. For the same molecule, the GI50 (MALME-3M melanoma) was 2.35 µM, the TGI (MALME-3M melanoma) was 6.72 µM and the GI50 (M14 melanoma) was 3.1 µM. The TGI (M14 melanoma) was 11.2 µM, the GI50 (OVCAR-4 ovarian) was 3.45 µM and the TGI (OVCAR-4 ovarian) was 13.5 µM. It also gave a GI50 (SF-295 CNS) of 3.33 µM, a TGI (SF-295 CNS) of 11.6 µM and a GI50 (K-562 leukemia) of 2.19 µM. The TGI (K-562 leukemia) was 12.5 µM, the GI50 (EKVX NSCLC) was 3.16 µM and the TGI (EKVX NSCLC) was 11 µM. The GI50 (MCF7 breast) was 2.49 µM, the TGI (MCF7 breast) was 12.6 µM and the GI50 (T-47D breast) was 3.43 µM. The TGI (T-47D breast) was 20.3 µM, the GI50 (HCC-2998 colon) was 1.79 µM and the TGI (HCC-2998 colon) was 3.52 µM. It also gave a GI50 (HCT-15 colon) of 2.14 µM, a TGI (HCT-15 colon) of 5.43 µM and a GI50 (HOP-62 NSCLC) of 2.7 µM. The TGI (HOP-62 NSCLC) was 6.99 µM, the GI50 (KM12 colon) was 2.36 µM and the TGI (KM12 colon) was 5.99 µM. The GI50 (OVCAR-5 ovarian) was 3.15 µM, the TGI (OVCAR-5 ovarian) was 10.7 µM and the GI50 (NCI/ADR-RES ovarian) was 2.38 µM. It also gave a TGI (NCI/ADR-RES ovarian) of 6.42 µM, a GI50 (TK-10 renal) of 3.7 µM and a TGI (TK-10 renal) of 10.9 µM. For the same molecule, the GI50 (UO-31 renal) was 2.19 µM, the TGI (UO-31 renal) was 7.49 µM and the GI50 (HT29 colon) was 2.28 µM. It also gave a TGI (HT29 colon) of 5.06 µM, a GI50 (NCI-H23 lung) of 2.22 µM and a TGI (NCI-H23 lung) of 4.83 µM. The GI50 (SK-OV-3 ovarian) was 4.01 µM, the TGI (SK-OV-3 ovarian) was 12.8 µM and the GI50 (MDA-MB-231 breast) was 3.85 µM. It also gave a TGI (MDA-MB-231 breast) of 15.4 µM, a GI50 (RXF 393 renal) of 1.79 µM and a TGI (RXF 393 renal) of 3.48 µM. The GI50 (DU-145 prostate) was 2.98 µM, the TGI (DU-145 prostate) was 11.9 µM and the GI50 (RPMI-8226 leukemia) was 1.1 µM. It also gave a TGI (RPMI-8226 leukemia) of 4.21 µM, a GI50 (SF-268 CNS) of 2.72 µM and a TGI (SF-268 CNS) of 9.1 µM. The GI50 (NCI-H226 lung) was 3.03 µM, the TGI (NCI-H226 lung) was 9.85 µM and the GI50 (SNB-75 CNS) was 3.44 µM. It also gave a TGI (SNB-75 CNS) of 12.2 µM, a GI50 (HOP-92 NSCLC) of 1.74 µM and a TGI (HOP-92 NSCLC) of 4.54 µM. For the same molecule, the GI50 (HL-60(TB) leukemia) was 1.58 µM, the TGI (HL-60(TB) leukemia) was 4.89 µM and the GI50 (MOLT-4 leukemia) was 2.16 µM. It also gave a TGI (MOLT-4 leukemia) of 7.63 µM, a GI50 (SK-MEL-2 melanoma) of 2.19 µM and a TGI (SK-MEL-2 melanoma) of 4.44 µM. The GI50 (SK-MEL-5 melanoma) was 1.77 µM, the TGI (SK-MEL-5 melanoma) was 3.28 µM and the GI50 (SN12C renal) was 3.21 µM. It also gave a TGI (SN12C renal) of 11.3 µM, a GI50 (IGROV1 ovarian) of 3.24 µM and a TGI (IGROV1 ovarian) of 9.73 µM. For the same molecule, the GI50 (HS 578T breast) was 4.16 µM, the TGI (HS 578T breast) was 30.2 µM and the GI50 (ACHN renal) was 3.63 µM. The TGI (ACHN renal) was 12.3 µM, the GI50 (PC-3 prostate) was 1.74 µM and the TGI (PC-3 prostate) was 5 µM. It also gave a GI50 (MDA-MB-435) of 2.35 µM, a TGI (MDA-MB-435) of 5.84 µM and a GI50 (LOX IMVI melanoma) of 1.85 µM. It also gave a TGI (LOX IMVI melanoma) of 3.76 µM, a GI50 (UACC-257 melanoma) of 4.4 µM and a TGI (UACC-257 melanoma) of 15.6 µM. For the same molecule, the GI50 (HCT-116 colon) was 1.69 µM, the TGI (HCT-116 colon) was 3.74 µM and the GI50 (OVCAR-3 ovarian) was 2.47 µM. It also gave a TGI (OVCAR-3 ovarian) of 5.8 µM, a GI50 (NCI-H522 lung) of 1.84 µM and a TGI (NCI-H522 lung) of 3.75 µM. It also gave a GI50 (COLO 205 colon) of 3.27 µM, a TGI (COLO 205 colon) of 9.32 µM and a GI50 (U251 CNS) of 2.01 µM. For the same molecule, the TGI (U251 CNS) was 4.36 µM, the GI50 (CCRF-CEM leukemia) was 1.24 µM and the TGI (CCRF-CEM leukemia) was 9.57 µM. The GI50 (SNB-19 CNS) was 2.19 µM, the TGI (SNB-19 CNS) was 5.17 µM and the GI50 (A549 NSCLC) was 3.25 µM. It also gave a TGI (A549 NSCLC) of 10.1 µM, a GI50 (SW-620 colon) of 2.59 µM and a TGI (SW-620 colon) of 7.22 µM. For the same molecule, the GI50 (SF-539 CNS) was 2.04 µM, the TGI (SF-539 CNS) was 4.16 µM and the GI50 (BT-549 breast) was 2.89 µM. It also gave a TGI (BT-549 breast) of 7.53 µM, a GI50 (OVCAR-8 ovarian) of 3.12 µM and a TGI (OVCAR-8 ovarian) of 12.5 µM.
